In paper PMC6372279 (eLife, 2019):
Bridge positions count the residues as written; N and C are the ends. Square brackets hold non-standard residues; d marks the D form. Ends that are not written are not given here. I, II: the chains in the order shown. Gla = N[C@@H](CC(C(=O)O)C(=O)O)C(=O)O

Legend:
human IR-B = human IR-B (Homo sapiens, UniProt P06213); test: cell-based
[1] = biological target: human insulin receptor isoform B (hIR-B) (Homo sapiens, UniProt P06213); test: biochemical; assay type: binding
human insulin receptor isoform B (hIR-B), sequence (P06213 28-758 limits assumed): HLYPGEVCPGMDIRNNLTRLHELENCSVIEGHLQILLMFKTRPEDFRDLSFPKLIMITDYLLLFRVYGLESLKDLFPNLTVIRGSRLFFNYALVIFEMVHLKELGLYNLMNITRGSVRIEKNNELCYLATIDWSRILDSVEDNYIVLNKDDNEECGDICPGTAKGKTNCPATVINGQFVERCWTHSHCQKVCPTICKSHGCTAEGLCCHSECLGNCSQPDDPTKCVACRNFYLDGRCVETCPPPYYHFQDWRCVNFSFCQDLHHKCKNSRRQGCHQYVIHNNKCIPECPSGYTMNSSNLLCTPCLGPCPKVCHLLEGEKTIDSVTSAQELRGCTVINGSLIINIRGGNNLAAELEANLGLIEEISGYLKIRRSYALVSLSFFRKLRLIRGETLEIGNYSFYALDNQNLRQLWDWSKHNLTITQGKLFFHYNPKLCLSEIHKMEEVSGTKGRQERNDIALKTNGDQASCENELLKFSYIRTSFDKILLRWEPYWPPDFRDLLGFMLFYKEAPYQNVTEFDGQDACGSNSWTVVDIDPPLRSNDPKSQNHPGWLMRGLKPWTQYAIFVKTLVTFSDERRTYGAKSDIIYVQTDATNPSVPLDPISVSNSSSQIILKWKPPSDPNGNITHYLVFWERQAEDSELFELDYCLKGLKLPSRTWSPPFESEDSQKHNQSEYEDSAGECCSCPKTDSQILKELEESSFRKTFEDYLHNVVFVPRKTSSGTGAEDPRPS
human insulin receptor isoform B (hIR-B), sequence (P06213 763-1382 partner limits assumed): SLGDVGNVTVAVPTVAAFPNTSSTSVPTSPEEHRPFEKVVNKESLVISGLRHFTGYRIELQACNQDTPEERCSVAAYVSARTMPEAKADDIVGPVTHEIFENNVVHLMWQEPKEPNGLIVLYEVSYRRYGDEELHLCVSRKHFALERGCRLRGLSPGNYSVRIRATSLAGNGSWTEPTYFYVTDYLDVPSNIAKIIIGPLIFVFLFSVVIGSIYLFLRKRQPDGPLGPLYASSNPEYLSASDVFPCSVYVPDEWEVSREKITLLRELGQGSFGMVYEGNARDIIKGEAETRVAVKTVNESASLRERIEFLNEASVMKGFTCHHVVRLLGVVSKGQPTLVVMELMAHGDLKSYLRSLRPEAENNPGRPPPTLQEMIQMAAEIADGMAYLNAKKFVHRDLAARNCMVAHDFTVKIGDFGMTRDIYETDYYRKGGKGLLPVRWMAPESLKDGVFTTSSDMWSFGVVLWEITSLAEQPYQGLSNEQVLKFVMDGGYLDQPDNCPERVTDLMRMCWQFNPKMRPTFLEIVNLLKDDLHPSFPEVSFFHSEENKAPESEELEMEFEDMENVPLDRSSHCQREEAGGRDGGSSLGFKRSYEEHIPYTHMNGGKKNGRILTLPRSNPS

[2] = tested on: STZ-induced hyperglycemic mice; conditions: mouse, in vivo

human IR-B, sequence (P06213 28-758 limits assumed): as the sequence (P06213 28-758 limits assumed) above
human IR-B, sequence (P06213 763-1382 partner limits assumed): as the sequence (P06213 763-1382 partner limits assumed) above

Q: With “I: NSDTPWNRCGSQITDSYR[Gla]LCPH / II: GVV[Gla]HCCKRACSNA[Gla]FMQFC-NH2 (disulfide I:9-II:7, I:21-II:20, II:6-II:11) [Con-Ins T2]” as the substance, how does the EC50 (human IR-B) read?
A: 15.5 nM

Q: What about the IC50 [1] of the same substance?
A: 31.8 nM

Q: For “I: NSDTPKHRCGSELADQYVQLCH-NH2 / II: GIV[Gla]VCCDNPCTVATLRTFCH-OH (disulfide I:9-II:7, I:21-II:20, II:6-II:11) [Con-Ins G3]”, which “potency against the human IR-B compared with Con-Ins G1 (in words)” value (human IR-B) is on record?
A: more than one order of magnitude less potent

Q: Which results are given for “I: SDSGTTLVRRRLCGS[Gla]LVTYLGELCLGN / II: GIV[Gla]DCCYNDCTDEKLKEYCHTLQ-NH2 (disulfide I:13-II:7, I:25-II:20, II:6-II:11) [Con-Ins K1]”?
A: Reversal of hyperglycemia (in words) [2]: effectively reversed hyperglycemia; Blood glucose, starting value ([2]; SEM): 404 (±25) mg/dL
